Laboratory results reported in PMC7356367, “Design, Synthesis, and Biological Evaluation of 8-Mercapto-3,7-Dihydro-1H-Purine-2,6-Diones as Potent Inhibitors of SIRT1, SIRT2, SIRT3, and SIRT5” (Molecules, 2020).

Columns and labels:
SH-SY5Y cells = experiment: MTT assay for toxicity; type: cell-based; settings: 24 hours
Method: To evaluate the toxicity of the compounds, we carried out MTT assays on SH-SY5Y
cells incubated with various concentrations of compounds 4 and 15 for 24 hours. We […]

SIRT2 [1] = target: T1, SIRT2 (Homo sapiens, UniProt Q8IXJ6); experiment: Fluorescent deacetylation assay, SIRT2
T1 sequence (Q8IXJ6 1-389): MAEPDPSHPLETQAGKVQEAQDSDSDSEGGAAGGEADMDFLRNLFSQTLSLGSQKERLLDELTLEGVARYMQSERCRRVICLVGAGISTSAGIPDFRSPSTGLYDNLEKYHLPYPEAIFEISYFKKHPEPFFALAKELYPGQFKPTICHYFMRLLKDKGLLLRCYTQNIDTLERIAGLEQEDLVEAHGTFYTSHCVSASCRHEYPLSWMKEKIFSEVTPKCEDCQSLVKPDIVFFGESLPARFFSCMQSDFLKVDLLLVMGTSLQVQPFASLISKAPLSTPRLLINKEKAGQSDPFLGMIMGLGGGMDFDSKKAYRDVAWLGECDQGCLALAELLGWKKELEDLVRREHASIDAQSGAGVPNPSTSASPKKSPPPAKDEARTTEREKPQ

SIRT6 = SIRT6 (Homo sapiens, UniProt Q8N6T7); experiment: Fluorescent deacetylation assay, SIRT6
SIRT5 = target: T2, SIRT5 (Homo sapiens, UniProt Q9NXA8); experiment: Fluorescent deacylation assay (succinyl-peptide), SIRT5
T2 sequence (Q9NXA8 37-310): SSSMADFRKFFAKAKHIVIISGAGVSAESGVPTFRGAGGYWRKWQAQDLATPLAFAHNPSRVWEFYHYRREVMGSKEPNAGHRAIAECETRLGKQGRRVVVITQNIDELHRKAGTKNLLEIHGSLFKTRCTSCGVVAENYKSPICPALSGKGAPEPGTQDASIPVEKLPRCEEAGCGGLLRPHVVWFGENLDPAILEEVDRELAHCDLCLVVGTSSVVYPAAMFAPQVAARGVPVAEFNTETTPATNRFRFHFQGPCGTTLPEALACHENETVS

SIRT1 [2] = target: T3, SIRT1 (Homo sapiens, UniProt Q96EB6); experiment: Fluorescent deacetylation assay, SIRT1; type: biochemical; settings: 0.8 μM SIRT1, 10 μM acetyl-peptide, 1.2 mM NAD+
T3 construct: Human SIRT1 (183-505-(GGGS)2-641-665); His6 with sumo-cleavage site (N); made in house; host or cells: E. coli BL21
T3 sequence (Q96EB6 with tags, fused parts or gaps): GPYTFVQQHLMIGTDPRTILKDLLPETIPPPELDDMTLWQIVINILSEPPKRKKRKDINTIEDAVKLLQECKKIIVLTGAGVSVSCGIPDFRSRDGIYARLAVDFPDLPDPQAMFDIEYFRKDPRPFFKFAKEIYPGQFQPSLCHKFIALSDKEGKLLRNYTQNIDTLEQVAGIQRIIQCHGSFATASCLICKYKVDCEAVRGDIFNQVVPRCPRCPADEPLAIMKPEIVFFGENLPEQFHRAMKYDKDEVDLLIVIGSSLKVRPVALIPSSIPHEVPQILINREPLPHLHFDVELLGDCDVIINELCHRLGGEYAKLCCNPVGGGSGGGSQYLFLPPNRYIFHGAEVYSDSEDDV
Method: All compounds were dissolved in 10 mM stock solution in DMSO. […] The fluorescence was measured using a microplate reader (SpectraMax M5, Molecular Devices, San Jose, CA, USA) with excitation at 320 nm and emission at 420 nm. All reactions were done in triplicate.
IC50 were determined for other sirtuins using the same assay as for SIRT3.

SIRT3 = target: T4, SIRT3 (Homo sapiens, UniProt Q9NTG7); experiment: Fluorescent deacetylation assay with internally quenched acetyl peptide and trypsin development, SIRT3
T4 sequence (Q9NTG7 118-399): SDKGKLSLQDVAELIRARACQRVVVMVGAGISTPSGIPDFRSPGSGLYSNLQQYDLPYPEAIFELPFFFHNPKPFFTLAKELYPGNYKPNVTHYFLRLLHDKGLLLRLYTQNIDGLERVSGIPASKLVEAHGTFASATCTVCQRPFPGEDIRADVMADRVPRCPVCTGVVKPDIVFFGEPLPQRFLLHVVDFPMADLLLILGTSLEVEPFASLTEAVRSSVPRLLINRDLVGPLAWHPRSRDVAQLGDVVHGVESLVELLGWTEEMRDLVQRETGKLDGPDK
Description: An internally quenched fluorescent peptide (sequence: Abz-GVLKAcAYNO2GV-NH2; Abz: 2-aminobenzoyl; KAc, acetyl lysine; YNO2, 3-nitro-L-tyrosine) was used as the substrate [24]. After deacetylation by SIRT3, the substrate was hydrolyzed by trypsin to produce a fluorescent Abz-peptide (sequence: Abz-GVLK), which can be quantified by measuring the fluorescence of Abz at 420 nm with the excitation wavelength of 320 nm (Figure 2A).

SIRT2 [3] = settings: Figure 1, reported sirtuin inhibitors; cited from earlier work
SIRT1 [4] = settings: Figure 1, reported sirtuin inhibitors; cited from earlier work
[5] = Stability of DMSO solution by mass spectrometry; settings: nine months, refrigerator 4 °C
Description: (§1) To examine the stability of the compound, we analyzed the solution sample of
Further, we determined the
(§2) compound in the assay buffer without SIRT3, and the compound after the
(§3) deacetylation catalyzed by SIRT3 by using HPLC.
(§4) To address whether SIRT3 might cause any
(§5) catalyzed by SIRT3 (Figure S3C and S3E).

[6] = Stability in the assay buffer and activity assay by HPLC; settings: overall statement
Description: as §1
Further, we determined the
as §2, §3, §4, §5

Chain of SIRT6 (Q8N6T7 whole entry): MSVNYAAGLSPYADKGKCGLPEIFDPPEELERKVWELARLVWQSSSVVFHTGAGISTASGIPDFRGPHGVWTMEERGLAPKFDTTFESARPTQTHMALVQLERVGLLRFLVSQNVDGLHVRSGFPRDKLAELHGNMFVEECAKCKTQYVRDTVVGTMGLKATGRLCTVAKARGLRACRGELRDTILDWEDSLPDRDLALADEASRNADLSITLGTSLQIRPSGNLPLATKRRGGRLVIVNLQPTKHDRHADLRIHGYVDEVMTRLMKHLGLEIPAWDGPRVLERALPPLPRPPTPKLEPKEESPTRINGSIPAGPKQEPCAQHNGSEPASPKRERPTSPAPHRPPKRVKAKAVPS

Row | Compound | melting point [°C] | IC50 (SIRT2 [1]) [nM] | IC50 (SIRT6) [nM] | IC50 (SIRT5) [nM] | IC50 (SIRT1 [2]) [µM] | IC50 (SIRT3) [nM] | other results
1 | CCCn1c(=O)c2[nH]c(SSc3nc4c([nH]3)c(=O)n(CCC)c(=O)n4CCC)nc2n(CCC)c1=O [Compound 4, 8,8’-Disulfanediylbis(1,3-dipropyl-3,7-dihydro-1H-purine-2,6-dione)] | 241 to 243 | 1190 ± 60 | 129000 ± 16100 | 390 ± 30 |  |  | Toxicity (MTT) at 50 μM (SH-SY5Y cells): displayed toxicity; Toxicity (MTT) at concentrations up to 20 μM (SH-SY5Y cells): nontoxic
2 | CCn1c(=O)n(CC(C)C)c(=O)c2[nH]c(SSc3nc4c([nH]3)c(=O)n(CC(C)C)c(=O)n4CC)nc21 [Compound 12, 8,8’-Disulfanediylbis(3-ethyl-1-isobutyl-3,7-dihydro-1H-purine-2,6-dione)] | 240 to 242 | 4860 ± 80 | 297000 ± 11300 | 1510 ± 100 | 0.43 ± 0.03 | 1770 ± 50 | 
3 | Cc1ccc(C(=O)Nc2ccc(S(=O)(=O)O)c3cc(S(=O)(=O)O)cc(S(=O)(=O)O)c23)cc1NC(=O)c1cccc(NC(=O)Nc2cccc(C(=O)Nc3cc(C(=O)Nc4ccc(S(=O)(=O)O)c5cc(S(=O)(=O)O)cc(S(=O)(=O)O)c45)ccc3C)c2)c1 [suramin] |  |  |  |  |  |  | IC50 (SIRT2 [3]): 1200 nM
4 | CCn1c(=O)n(CC2CCOCC2)c(=O)c2[nH]c(SSc3nc4c([nH]3)c(=O)n(CC3CCOCC3)c(=O)n4CC)nc21 [Compound 13, 8,8’-Disulfanediylbis(3-ethyl-1-((tetrahydro-2H-pyran-4-yl)methyl)-3,7-dihydro-1H-purine-2,6-dione)] | 229 to 231 | 2250 ± 120 | 156000 ± 6500 | 500 ± 10 |  |  | 
5 | CC(C(=O)Nc1cccc(/N=C/c2c(O)ccc3ccccc23)c1)c1ccccc1 (stereo not drawn) [salermide] |  |  |  |  |  |  | IC50 (SIRT1 [4]): 76000 nM; IC50 (SIRT2 [3]): 45000 nM
6 | CCn1c(=O)n(CC2CCCO2)c(=O)c2[nH]c(SSc3nc4c([nH]3)c(=O)n(CC3CCCO3)c(=O)n4CC)nc21 (stereo not drawn) [Compound 14, 8,8’-Disulfanediylbis(3-ethyl-1-((tetrahydrofuran-2-yl)methyl)-3,7-dihydro-1H-purine-2,6-dione)] | 166 to 168 | 1620 ± 50 | 127000 ± 10200 | 540 ± 20 | 0.15 ± 0.02 | 690 ± 120 | Fold enhanced activity compared to compound 12 (SIRT3) (SIRT3; relative to compound 12): 2.5 fold
8 | CS(=O)(=O)NCCC1CCN(c2ncnc3cc(C(N)=O)sc23)CC1 [ELT-31, reference compound] |  | 120 ± 10 | 462000 ± 14900 | > 500000 |  |  | 

Now from value to compound, other results behind:

Row | melting point [°C] | IC50 (SIRT2 [1]) [nM] | IC50 (SIRT6) [nM] | IC50 (SIRT5) [nM] | IC50 (SIRT1 [2]) [µM] | IC50 (SIRT3) [nM] | Compound | other results
9 | 216 to 218 | 2030 ± 40 | 111000 ± 2600 | 840 ± 80 | 0.19 ± 0.01 | 460 ± 40 | CCn1c(=O)n(CCc2ccc(F)cc2)c(=O)c2[nH]c(SSc3nc4c([nH]3)c(=O)n(CCc3ccc(F)cc3)c(=O)n4CC)nc21 [Compound 16, 8,8’-Disulfanediylbis(3-ethyl-1-(4-fluorophenethyl)-3,7-dihydro-1H-purine-2,6-dione)] | 
10 | 216 to 219 | 2160 ± 80 | 102000 ± 9100 |  |  |  | CCn1c(=O)n(CCc2ccc(OC)cc2)c(=O)c2[nH]c(SSc3nc4c([nH]3)c(=O)n(CCc3ccc(OC)cc3)c(=O)n4CC)nc21 [Compound 18, 8,8’-Disulfanediylbis(3-ethyl-1-(4-methoxyphenethyl)-3,7-dihydro-1H-purine-2,6-dione)] | 
11 | 168 to 171 | 2190 ± 80 | 128000 ± 4100 | 1000 ± 30 | 0.41 ± 0.04 | 1150 ± 80 | CCn1c(=O)n(CCc2ccc(NC(=O)OC(C)(C)C)cc2)c(=O)c2[nH]c(SSc3nc4c([nH]3)c(=O)n(CCc3ccc(NC(=O)OC(C)(C)C)cc3)c(=O)n4CC)nc21 [Compound 17, di-tert-Butyl(((Disulfanediylbis(3-ethyl-2,6-dioxo-2,3,6,7-tetrahydro-1H-purine-8,1-diyl))bis(ethane-2,1-diyl))bis(4,1-phenylene))dicarbamate] | 
12 |  | 1170 ± 40 | 116000 ± 6200 | 420 ± 10 |  |  | CCn1c(=O)c2[nH]c(SSc3nc4c([nH]3)c(=O)n(CC)c(=O)n4CC)nc2n(CC)c1=O [Compound 1, 8,8′-Disulfanediylbis(1,3-diethyl-3,7-dihydro-1H-purine-2,6-dione)] | Stability in DMSO [5]: remains stable; Stability in the activity assays [6]: stable in the activity assays
13 | 174 to 175 | 9440 ± 190 | 452000 ± 9800 | 26100 ± 3150 | 1.87 ± 0.04 | 8520 ± 220 | CCn1c(=O)n(CCC(=O)Nc2cccc(C(F)(F)F)c2)c(=O)c2[nH]c(SSc3nc4c([nH]3)c(=O)n(CCC(=O)Nc3cccc(C(F)(F)F)c3)c(=O)n4CC)nc21 [Compound 19, 3,3’-(Disulfanediylbis(3-ethyl-2,6-dioxo-2,3,6,7-tetrahydro-1H-purine-8,1-diyl))bis(N-(3-(trifluoromethyl)phenyl)propanamide)] | Fold reduced inhibitory activity compared with 15 (SIRT3) (SIRT3; relative to compound 15): 23 fold
14 |  | 4610 ± 130 | 210000 ± 5900 | 920 ± 40 | 0.49 ± 0.01 | 970 ± 60 | CCn1c(=O)n(CCc2ccc(N)cc2)c(=O)c2[nH]c(SSc3nc4c([nH]3)c(=O)n(CCc3ccc(N)cc3)c(=O)n4CC)nc21 [Compound 20, 8,8’-Disulfanediylbis(1-(4-aminophenethyl)-3-ethyl-3,7-dihydro-1H-purine-2,6-dione)] | 
15 | 225 to 227 | 1350 ± 50 | 103000 ± 6300 | 450 ± 10 |  |  | CCn1c(=O)n(CCc2ccccc2)c(=O)c2[nH]c(SSc3nc4c([nH]3)c(=O)n(CCc3ccccc3)c(=O)n4CC)nc21 [Compound 15, 8,8’-Disulfanediylbis(3-ethyl-1-phenethyl-3,7-dihydro-1H-purine-2,6-dione)] | Toxicity (MTT) at 50 μM (SH-SY5Y cells): displayed toxicity; Toxicity (MTT) at concentrations up to 20 μM (SH-SY5Y cells): nontoxic; Stability in the activity assays [6]: stable
